Tests used:
[1] = target: T1, fatty acid cyclooxygenase (Homo sapiens, UniProt P23219); assay: Fatty Acid Cyclooxygenase (FCO) Assay; type: biochemical; details: 30 µg/ml test compound; inhibition of formation of PGE2; enzyme from human platelets
T1 construct: Microsomes were prepared from 185 bags of human platelets; from tissue; host or cells: human platelets (solubilized microsomes, then electrofocusing and Sephadex G-200)
Procedure: Microsomes were prepared from 185 bags of human platelets (each bag containing the platelets from one pint of blood prepared using differential centrifugation procedures). The platelets from approximately 60 bags were prepared at one time. Platelet-rich plasma (500 g) was centrifuged at 10,000 x g for 20 minutes, and the platelet pellet was suspended in 100 ml of 0.1M. potassium phosphate buffer, pH 8.0, with a Teflon glass homogenizer and sonicated for 5.0 minutes with a Bronson Sonifier (Model 350) in a rosette flask cooled in ice water. Disrupted platelets were centrifuged 15 minutes at 10,000 x g. The supernatant was centrifuged at 100,000 x g for 90 minutes and the microsomal pellets were homogenized in 25 ml of 20% sucrose containing 1.0% Triton X-100 detergent. After 30 minutes at 4°C, the solubilized microsomes were centrifuged at 100,000 x g for 60 minutes. The yellow supernatant was removed and stored at -70°C.
The solubilized fatty acid cyclooxygenase was applied to a 440 ml electrofocusing column (LKB-8012) containing 1% phisolytes (Brinkman Instruments, Westburgh, NY), pH 2-11, with the cathode at the top of the column. The enzyme was layered onto the column at the appropriate time so that its sucrose concentration was equal to that of the column gradient. This was accomplished by checking the gradient concentration periodically with a sucrose hand refractometer. Electrofocusing was carried out for 16 hours with an initial voltage of 400 V and a final voltage of 900-1,000 volts. Fractions were collected (20 ml) and assayed for PGE2 formation. Active peak fractions were pooled and concentrated by ultrafiltration (XM 100A) to a volume of 3-5 ml.
Active fractions from electrofocusing were applied to a G-200 Sephadex column (2 cm x 46 cm) and eluted with 10 mM potassium phosphate buffer, pH 7.0, in 5 ml fractions. After assay, active fractions were pooled and concentrated to 1.0 ml by ultrafiltration (XM 100A), and kept frozen at -70°C.
Enzyme activity was determined by assaying for PGE2 formation by preincubating the enzyme with 10 mmol/l imidazole phosphate buffer, pH 8.0, 2 mmol/l epinephrine, 2 mmol/1 methemoglobin, and the test compound (30 pg/ml) in a total volume of 0.2 ml for one minute at 37°C. After preincubation, 5 mmol/1 ^14C-arachidonic acid were added and the mixture was incubated an additional 0.5 minutes at 37°C. The enzyme reaction was stopped by the addition of 20 µl of indomethacin (2 mg/ml) in alcohol.
The reaction mixture was spotted (50 pl) on a silica gel (LQ6D) plate and subjected to TLC. The solvent system consisted of chloroform-methanol-glacial acetic acid (90:5:5, v/v/v) and the relative mobilities were PGF2a = 0.235, and PGE2 = 0.47. The silica gel on the plate was scraped in 1 cm sections, suspended in 5 ml of the scintillation fluid [5.88 g of 2,5-diphenyl-oxazole and 118 mg of 1,4-bis(5-phenyloxazol-2-yl)benzene] dissolved in 650 ml of toluene and 350 ml of Triton X-100) and the radioactivity was determined in an Isocap/300 liquid scintillation counter (Searle Analytic, Inc., Southfield, MI). Another 50 µl of the mixture was added to 10 ml of the Triton X-100 based scintillation fluid, and the radioactivity was determined so that the amount of radioactivity recovery from the TLC plate could be ascertained. PGE2 formation for each test compound was determined as a percent of control experiments wherein no test compound was added. Data is expressed in Table I as the percent inhibition of formation of PGE2 at a test compound concentration of 30 pg/ml.

[2] = target: Pancreatic phospholipase A2 (Homo sapiens, UniProt P04054); assay: Phospholipase A2 (PLA2) Assay; type: biochemical; details: 30 µg/ml test compound; inhibition of 14C-free fatty acid formation
Pancreatic phospholipase A2, sequence (P04054 23-148): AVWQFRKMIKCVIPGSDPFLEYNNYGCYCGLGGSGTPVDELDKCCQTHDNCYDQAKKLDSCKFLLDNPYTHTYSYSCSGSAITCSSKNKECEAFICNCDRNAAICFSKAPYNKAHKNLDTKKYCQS
Procedure: The assay buffer contained 10 mM Tris-HCl buffer, pH 8.0, 100 mM NaCl, 1 mM CaCl2 and 1 mg/ml of bovine serum albumin. A toluene-ethanol (1:1 v/v) solution of phosphatidiylcholine, L-a-dipalmitoyl-(2-palmitoyl-1-^14C) obtained from New England Nuclear was evaporated to dryness in a flask under nitrogen and the assay buffer was added to give a substrate concentration of 9.0 x 10^-5M (specific activity = 27.7 mCi/mmol). The mixture was sonicated for 5 minutes in a Bransonic 220 Sonication Bath. Pancreatic phospholipase A2 (specific activity = 600 units/mg) was diluted with the assay buffer to give an enzyme concentration of 0.1 mg/ml. […] To initiate the enzyme reaction, 0.1 ml of the mixture containing the substrate was added to the enzyme solution and the reaction mixture was further incubated for 30 minutes at 37°C. The reaction was then terminated by the addition of 20 µl of 1M citric acid.
Fifty µl of the mixture was added to 10 ml of scintillation fluid [5.88 g of 2,5-diphenyl-oxazole and 118 mg of 1,4-bis(5-phenyloxazol-2-yl)benzene] dissolved in 650 ml of toluene and 350 ml of Triton X-100) and the radioactivity was determined in an Isocap/300 liquid scintillation counter (Searle Analytic Inc., Southfield, Michigan). Another 50 µl of the mixture was applied directly onto the spotting area of a silica gel plate (LK6D, Whatman, Clifton, N.J.) and subjected to thin layer chromatography in a solvent system of ethyl acetate:acetic acid:2,2,4-trimethylpentane:H20 (90:20:50:100, v/v/v). The silica gel on the plate was scraped in 1 cm sections, suspended in 5 ml of the Triton X-100 based scintillation fluid and the radioactivity was determined. Phosphatidylcholine remained at the origin while fatty acids migrated to a few centimeters (2-3 cm) below the solvent front. The percent of ^14C-free fatty acid formed with the test compound added was calculated as compared to the amount formed in control experiments where no test compound was added. […]

T1 sequence (P23219 24-599): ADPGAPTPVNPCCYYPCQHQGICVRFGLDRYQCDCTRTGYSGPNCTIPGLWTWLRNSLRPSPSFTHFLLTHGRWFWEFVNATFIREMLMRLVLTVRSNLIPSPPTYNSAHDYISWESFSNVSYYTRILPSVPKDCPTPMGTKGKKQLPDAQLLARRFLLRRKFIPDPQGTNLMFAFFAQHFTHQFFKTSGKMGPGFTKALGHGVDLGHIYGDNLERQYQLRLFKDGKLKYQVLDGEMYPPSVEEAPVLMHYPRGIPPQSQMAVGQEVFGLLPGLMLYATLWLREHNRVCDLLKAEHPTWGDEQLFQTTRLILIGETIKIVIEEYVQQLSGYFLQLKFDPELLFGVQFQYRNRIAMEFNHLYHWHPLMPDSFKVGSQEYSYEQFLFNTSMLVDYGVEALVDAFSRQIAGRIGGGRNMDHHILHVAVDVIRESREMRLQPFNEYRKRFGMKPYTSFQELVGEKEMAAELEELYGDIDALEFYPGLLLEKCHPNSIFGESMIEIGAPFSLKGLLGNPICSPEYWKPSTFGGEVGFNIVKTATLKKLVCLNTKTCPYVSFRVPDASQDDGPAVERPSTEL

inhibition at 30 µg/mL [1] [%] | inhibition at 30 µg/mL [2] [%] | Structure (SMILES)
47 | 50 | CC(C)=CCCC(C)=CCCC(C)=CCCC1=CC(=O)OC1O (centres unmarked) [Example 13, 5-Hydroxy-4-(4,8,12-trimethyl-3,7,11-tri-decatrienyl)-2(5H)-furanone]
75 | 77 | CCCCC/C=C\C/C=C\C/C=C\CCCC1=CC(=O)OC1O (centres unmarked) [Example 5, (Z,Z,Z)-4-(4,7,10-hexadecatrienyl)-5-hydroxy-2(5H)-furanone]
< 5 | 72 | CC(C)=CCC/C(C)=C/CCC1=CC(=O)OC1O (centres unmarked) [Example 14, (E,E)-4-(4,8-dimethyl-3,7-nonadienyl)-5-hydroxy-2(5H)-furanone]
77 | 77 | CCCCC/C=C\C/C=C\CCCCCCC1=CC(=O)OC1O (centres unmarked) [Example 1, (Z,Z)-4-(7,10-hexadecadienyl)-5-hydroxy-2-(5H)-furanone]
20 | 44 | O=C1C=C(CCCCCOc2ccccc2Cc2ccccc2)C(O)O1 (centres unmarked) [Example 18, 5-Hydroxy-4-[5-(2-benzylphenoxy)pentyl]-2(5H)-furanone]
46 | 0 | CC/C=C\C/C=C\C/C=C\C/C=C\C/C=C\C/C=C\CC1=CC(=O)OC1O (centres unmarked) [Example 9, (Z,Z,Z,Z,Z,Z)-4-(2,5,8,11,14,17-eicosa-hexaenyl)-5-hydroxy-2(5H)-furanone]
32 | 88 | CC(C)=CCCC(C)=CCCC(C=O)=CCCC1=CC(=O)OC1O (centres unmarked) [Example 15, 2-[3-(2,5-dihydro-2-hydroxy-5-oxo-3-furanyl)-propylidene]-6,10-dimethyl-5,9-undecadienal]
16 | 72 | O=C1C=C(CCCCOc2ccc3ccccc3c2)C(O)O1 (centres unmarked) [Example 12, 5-Hydroxy-4-[4-(2-naphthalenyloxy)butyl]-2(5H)-furanone]
75 | 82 | CC/C=C\C/C=C\C/C=C\CCCCCCC1=CC(=O)OC1O (centres unmarked) [Example 2, (Z,Z,Z)-4-(7,10,13-hexadecatrienyl)-5-hydroxy-2(5H)-furanone]
67 | 41 | CCCCC/C=C\C/C=C\C/C=C\C/C=C\CCC1=CC(=O)OC1O (centres unmarked) [Example 3, (Z,Z,Z,Z)-5-hydroxy-4-(3,6,9,12-octa-decatetraenyl)-2(5H)-furanone]
14 | 76 | CC(C)=CCCC(C)=CCCC(=CCCC1=CC(=O)OC1O)CO (centres unmarked) [Example 19, 5-Hydroxy-4-[4-(hydroxymethyl)-8,12-dimethyl-3,7,11-tridecatrienyl]-2(5H)-furanone]
61 | 51 | CCCCCCCC/C=C\CCCCCCC1=CC(=O)OC1O (centres unmarked) [Example 11, (Z)-4-(7-hexadecenyl)-5-hydroxy-2(5H)-furanone]
52 | 0 | CCCCCCCC/C=C/CCCCCCC1=CC(=O)OC1O (centres unmarked) [Example 4, (E)-4-(7-hexadecenyl)-5-hydroxy-2(5H)-furanone]

— patent EP0209274A2, “Furanone derivatives” (ELI LILLY AND COMPANY, priority 1985, dated 1987)
